In ChEMBL document CHEMBL1151970, “Cardioprotection with the parrodiene 2,4,6-octatrienal and its potassium salt through activation of the Akt-Bcl-2 survival pathway” (2009):
Active and inactive are the calls of the source. The calls are words filed in the database; no cut-off is given here.

Legend:
[1] = test system: Heart; test: Cardioprotective activity in Langendorff perfused Sprague-Dawley rat heart assessed as activation of Akt phosphorylation at 50 mM preperfused 15 mins before global ischemia challenge for 30 mins followed by 120 mins of reperfusion; assay type: functional, tissue-based
[2] = test system: Heart; test: Cardioprotective activity in Langendorff perfused Sprague-Dawley rat heart assessed as reduction in myocardial infarction size at 50 mM preperfused 15 mins before global ischemia challenge for 30 mins followed by 120 mins of reperfusion by triphenyl tetrazolium chloride method; assay type: functional; set-up: scale not given: the % may be the effect or the level left
[3] = test system: Heart; test: Cardioprotective activity in Langendorff perfused Sprague-Dawley rat heart assessed as reduction of caspase 3 activation at 50 mM preperfused 15 mins before global ischemia challenge for 30 mins followed by 120 mins of reperfusion by Western blotting; assay type: functional, tissue-based
[4] = test system: Heart; test: Cardioprotective activity in Langendorff perfused Sprague-Dawley rat heart assessed as reduction in number of cardiomycotic apoptic cells at 50 mM preperfused 15 mins before global ischemia challenge for 30 mins followed by 120 mins of reperfusion by TUNEL assay; assay type: functional; set-up: scale not given: the % may be the effect or the level left
[5] = test system: Heart; test: Cardioprotective activity in Langendorff perfused Sprague-Dawley rat heart assessed as […] of Bcl2 at 50 mM preperfused 15 mins before global ischemia challenge for 30 mins followed by 120 mins of reperfusion by Western blotting; assay type: functional, tissue-based
[6] = test system: Heart; test: Cardioprotective activity in Langendorff perfused Sprague-Dawley rat heart assessed as recovery of aortic pressure at 50 mM preperfused 15 mins before global ischemia challenge for 30 mins followed by 120 mins of reperfusion; assay type: functional, tissue-based
[7] = test system: Heart; test: Cardioprotective activity in Langendorff perfused Sprague-Dawley rat heart assessed as recovery of first derivative of left ventricular developed pressure at 50 mM preperfused 15 mins before global ischemia challenge for 30 mins followed by 120 mins of reperfusion; assay type: functional, tissue-based
[8] = test system: Heart; test: Cardioprotective activity in Langendorff perfused Sprague-Dawley rat heart assessed as down regulation of HO1 at 50 mM preperfused 15 mins before global ischemia challenge for 30 mins followed by 120 mins of reperfusion by Western blotting; assay type: functional, tissue-based
[9] = test system: Heart; test: Cardioprotective activity in Langendorff perfused Sprague-Dawley rat heart assessed as prevention of cytochrom c release from cytosolic fraction at 50 mM preperfused 15 mins before global ischemia challenge for 30 mins followed by 120 mins of reperfusion by Western blotting; assay type: functional, tissue-based
[10] = test system: Heart; test: Cardioprotective activity in Langendorff perfused Sprague-Dawley rat heart assessed as recovery of left ventricular developed pressure at 50 mM preperfused 15 mins before global ischemia challenge for 30 mins followed by 120 mins of reperfusion; assay type: functional, tissue-based
[11] = test system: Heart; test: Cardioprotective activity in Langendorff perfused Sprague-Dawley rat heart assessed as reduction of pro-caspase 3 activation in ischemic reperfused myocardium at 50 mM preperfused 15 mins before global ischemia challenge for 30 mins followed by 120 mins of reperfusion by Western blotting; assay type: functional, tissue-based

Compound	Activity [1]	Activity [2]	Activity [3]	Activity [4]	Activity [5]	Activity [6]	Activity [7]	Activity [8]	Activity [9]	Activity [10]	Activity [11]
C/C=C/C=C/C=C/C=O	Active	16%	Active	15%	Active	Active	Active	Active	Active	Active	Active
C/C=C/C=C/C=C/C(=O)[O-].[K+]	Active	15%	Active	13.6%	Active	Active	Active	Active	Active	Active	Active
